Experimental findings from patent publication US8367840B2, “Composition for treating infectious diseases caused by Helicobacter” (Universidad de Zaragoza, priority 2007, dated 2013) are described below.

The target in one assay is T1, H. pylori flavodoxin (Helicobacter pylori, UniProt O25776).
T1 construct: made in house; host or cells: E. coli BL21 (flavodoxin, pET28a); E. coli JVQ2 (PFOR, pBS(KS)); E. coli BL21(DE3) (FqrB, pET29b)
T1 sequence (O25776 1-164): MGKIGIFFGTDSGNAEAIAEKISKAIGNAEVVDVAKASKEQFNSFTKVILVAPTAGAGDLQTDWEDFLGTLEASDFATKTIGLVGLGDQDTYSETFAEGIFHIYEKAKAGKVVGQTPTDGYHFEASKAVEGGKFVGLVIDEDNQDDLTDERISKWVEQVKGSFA
The assay is described as follows: Inhibition of the pyruvate/PFOR/flavodoxin/FqrB/NADP+ electron transfer reaction (NADPH formation at 340 nm). The conditions noted are these: 50 μM compound; anaerobic; 10 μM Fld, 0.09 mg/ml PFOR, 0.15 μM FqrB; FIG. 1. Type of assay: biochemical. An excerpt:
Measurement of the absorbance (A) (AU is the unit of absorbance) at 340 nm against time (t) in seconds (s).
Flavodoxin is an essential protein for Helicobacter pylori survival as it participates in a fundamental reaction for obtaining energy from the oxidative decarboxylation of pyruvate. In this reaction, flavodoxin transfers electrons between the PFOR enzyme and the FqrB enzyme, which releases them to NADP^+.
The sequential reaction of electron transfer between pyruvate, PFOR, flavodoxin, FqrB and NADP^+ (activity assay) was followed spectroscopically by the appearance of the signal at 340 nm with the formation of NADPH. The reaction mixture contained 100 mM potassium phosphate pH 7, 10 mM pyruvate, 0.18 mM CoA, 1 mM MgCl, 0.3 mM NADP^+, 0.09 mg/ml PFOR, 10 μM Fld and 0.15 μM FqrB. The mixture, except CoA, was placed in a cuvette specially designed for anaerobic conditions. Oxygen was removed by means of 5 minute cycles with alternate flows of vacuum and argon. The reaction was started by the addition of 0.18 mM coenzyme A (CoA) that was held in a compartment inside the same cuvette. The reaction completed 15 minutes after adding the CoA reagent.
The inhibition assays were carried out in the same conditions as the activity assays previously described, adding an additional 50 μM of the disclosed compound of the general formula shown in (II) to the reaction cuvette.

A further assay concerns the target T2, flavodoxin of H. pylori (Helicobacter pylori, UniProt O25776).
T2 construct: made in house; host or cells: E. coli BL21
The assay is described as follows: Binding to flavodoxin by isothermal titration calorimetry (ITC). Particulars: 50 mM EPPS buffer, pH 9, 7% DMSO, protein around 20 μM, read-out: affinity for flavodoxin. The procedure: The specific binding of the inhibitors of the present invention to flavodoxin of H. pylori was confirmed by isothermal titration calorimetry (ITC). This technique not only measures the affinity of each compound for the target protein, but also determines the contribution of the enthalpic and entropic components of binding.
The binding experiments were carried out in 50 mM EPPS buffer, pH 9 with 7% DMSO, with the inhibitor in the injection syringe at a concentration of 300-500 μM, and the protein around 20 μM in the measurement cell.
Background: In ITC the heat of successive injections is recorded.

For `COc1ccc(CSc2ccc([N+](=O)[O-])c3nonc23)cc1` [formula (II)], the “inhibition of NADPH formation (product formation curve, absorbance at 340 nm)” value against H. pylori flavodoxin is reported as “almost total”. The Kd at flavodoxin of H. pylori amounted to 3 µM.
